How the values were obtained:
[1] = molecular target: T1, DENR Densityregulated protein (O43583) (Homo sapiens, UniProt O43583); assay: SILAC RP-ABPP; format: cell-based; details: SILAC H/L
T1 construct: In Situ Labelling of Cells with Hydrazine Probes for MS Experiments; endogenous in cells; host or cells: HEK293T and/or MDA-MB-231
T1 sequence (O43583 1-198): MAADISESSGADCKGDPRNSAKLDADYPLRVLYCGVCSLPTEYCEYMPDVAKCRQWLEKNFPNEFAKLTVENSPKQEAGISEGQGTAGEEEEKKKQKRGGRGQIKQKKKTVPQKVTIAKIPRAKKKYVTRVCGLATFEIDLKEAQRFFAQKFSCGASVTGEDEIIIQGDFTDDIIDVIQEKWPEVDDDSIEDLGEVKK
Method: For MS-based experiments, labelling was performed in a similar manner as described above in Example 2, maintaining the same concentrations of probes. Modifications to this protocol included using isotopically ‘light’ and ‘heavy’ SILAC cells that were also grown to near complete confluence prior to treatment. Isotopically light cells were treated with the non-clickable hydrazine probe (at the same concentration as the probe in ‘enrichment’ experiments) or the probe in the presence of 10-fold excess non-clickable hydrazine probe as a competitor (in ‘competition’ experiments). Isotopically heavy cells were treated with the probe for both types of experiments. These treatments were performed in non-SILAC media. Following treatments, cells were washed with cold PBS to remove the probe-containing media, harvested by scraping, collected by centrifugation (1,400 g, 3 min, 4° C.), washed again by resuspension in cold PBS and frozen as pellets at −80° C. until use.
The fractionated equimolar mixture of heavy and light soluble proteomes (1-1.5 mg) was diluted to 1 mL in PBS. Click reactions were scaled accordingly (except for biotin-azide) to maintain final concentrations of 0.1 mM TBTA, 1 mM CuSO4, 100 μM biotin-azide (10 mM in DMSO) and 1 mM TCEP. The mixture was vortexed and placed on a rotator at ambient temperature for 1 hour. Sequential addition of and mixture with pre-chilled methanol (MeOH, 2 mL), chloroform (CHCl3, 0.5 mL) and PBS (1 mL) on ice quenched the reaction. The precipitated proteome was centrifuged (5,000 g, 10 min, 4° C.) to fractionate the protein interphase from the organic and aqueous solvent layers. The protein pellet was washed with cold 1:1 MeOH:CHCl3 (3×1 mL), mildly sonicated in cold 4:1 MeOH:CHCl3 (2.5 mL) and pelleted once more by centrifugation (5,000 g, 10 min, 4° C.) to ensure click reagents were efficiently removed.
Heavy and light parent ion chromatograms associated with successfully identified peptides were extracted and compared using CIMAGE software as previously described^69. At least one ion of a co-eluting heavy-light pair must be accurately identified from a fragmentation event that occurred within the retention time window (±10 min) of parent ion elution. To ensure that the correct pair of peaks is quantified, chromatograms are extracted within a 10 ppm error tolerance of the predicted m/z, the signal-to-noise ratio must be >2.5 and the ‘co-elution correlation score’ and ‘envelope correlation score’ must have R^2 values ≥0.8. In addition, peptides detected as ‘singletons,’ where only the heavy ion of a peptide pair was identified, but for which passed all other filtering parameters, are given a default assigned ratio of ‘20,’ which is defined as any measured ratio that is ≥20.
To further eliminate false positives and any stochastic variability in the data, protein ratios were then determined by the median peptide ratio derived from three or more unique quantified peptides. Protein ratios that complied with these criteria from a single experiment were then averaged with ratios acquired from ≥3 replicates to provide final values for each type of experiment in both cell lines with both probes. […] Most importantly, there are no robustly measured ratios for proteins identified as probe 1 targets that had measured ratios of ˜1 with probe 2. Probe targets in HEK293T and MDA-MB-231 cells represent data combined from ≥3 independent biological replicates with each cell type performed with several independent batches of synthesized probes over a period of almost two years.
Analogous experiments were also performed with the aryl hydrazine probe 2 (1 mM, 0.5 hour), which furnished a larger list of high-reactivity proteins (33 in total; Table 3) that contained several of the targets of probe 1 (compared in Table 4), as well as additional proteins that may reflect an expanded chemical reactivity for probe 2.

[2] = molecular target: T2, PSAP Proactivator polypeptide (P07602) (Homo sapiens, UniProt P07602); assay: SILAC RP-ABPP; format: cell-based; details: SILAC H/L, MDA-MB-231
T2 construct: In Situ Labelling of Cells with Hydrazine Probes for MS Experiments; endogenous in cells; host or cells: HEK293T and MDA-MB-231
T2 sequence (P07602 60-524): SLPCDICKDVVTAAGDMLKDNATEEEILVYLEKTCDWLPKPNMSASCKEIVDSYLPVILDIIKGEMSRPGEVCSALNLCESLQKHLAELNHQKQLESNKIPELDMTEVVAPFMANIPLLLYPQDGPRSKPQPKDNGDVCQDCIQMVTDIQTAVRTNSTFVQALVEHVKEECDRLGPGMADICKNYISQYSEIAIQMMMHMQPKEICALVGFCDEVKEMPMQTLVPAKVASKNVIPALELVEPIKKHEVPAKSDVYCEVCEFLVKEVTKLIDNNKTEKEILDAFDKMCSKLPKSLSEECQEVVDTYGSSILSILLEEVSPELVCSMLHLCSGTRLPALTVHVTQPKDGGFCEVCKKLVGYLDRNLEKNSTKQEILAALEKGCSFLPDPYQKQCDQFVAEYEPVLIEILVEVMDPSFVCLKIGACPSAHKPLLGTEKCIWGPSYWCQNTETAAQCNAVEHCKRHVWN

Structure (SMILES): C#CCNN.Cl [probe 1, prop-2-yn-1-ylhydrazine hydrochloride]
- competition ratioavg ([1]; probe 1 vs probe 1+10x probe 3, cell line not given): 1
- enrichment ratioavg ([2]; probe 1 3 mM 0.5 h vs probe 3): 12
- competition ratioavg ([2]; probe 1 vs probe 1+10x probe 3): 3

Structure (SMILES): C#CCCNC(=O)c1ccc(NN)cc1.Cl [probe 2, N-(but-3-yn-1-yl)-4-hydrazinylbenzamide hydrochloride]
- enrichment ratioavg ([1]; probe 2 1 mM 0.5 h vs probe 4, MDA-MB-231): 20
- competition ratioavg ([1]; probe 2 vs probe 2+10x probe 4, MDA-MB-231): 5
- enrichment ratioavg ([2]; probe 2 1 mM 0.5 h vs probe 4): 5
- competition ratioavg ([2]; probe 2 vs probe 2+10x probe 4): 5

— patent US11226337B2, “Chemoproteomic profiling of protein electrophilic and oxidative post-translational modifications” (Zenagem, LLC, priority 2017, dated 2022)
